Tests used:
[1] = biological target: T1, 5-HT2A receptor (Homo sapiens, UniProt P28223); experiment: FLIPR Ca2+ flux functional assay, 5-HT2A; format: cell-based; settings: agonist activity, Ca2+ flux, HEK293 cells; for EC50: read-out: 5-HT2A EC50
T1 construct: host or cells: HEK293
Protocol: Activity at 5-HT2A, 5-HT2B and 5-HT2C receptors was determined using a FLIPR Ca^2+ flux assay at WuXi AppTec Co. Ltd. (Hong Kong) Discovery Biology Unit according to their standard protocols. Briefly, stably transfected cells expressing the receptor of interest (HEK293 for 5-HT2A and 5-HT2C; CHO-K1 for 5-HT2B) were grown and plated in a 384 well plate and incubated at 37° C. and 5% CO2 overnight. A 250 mM stock solution of probenecid in FLIPR calcium assay buffer (10 mL) was freshly prepared and combined with a fluorescent dye (Fluo-4 Direct) to give a final assay concentration of 2.5 mM. Reference compounds were 4-fold serially diluted and the screening compounds were 3-fold serially diluted in 100% DMSO for 10 points using Agilent Bravo, and 750 nL was added to a 384 well compound plate using Echo along with 30 μL assay buffer. The fluorescent dye was then added to the assay plate along with assay buffer to a final volume of […]. The cell plate was incubated for 50 min at 37° C. and 5% CO2 and placed into the FLIPR Tetra along with the compound plate. 10 μL of references and compounds were then transferred from the compound plate into the cell plate and the fluorescent signal was read.

[2] = biological target: T2, 5-HT2B receptor (Homo sapiens, UniProt P41595); experiment: cell-based; settings: agonist activity, Ca2+ flux, CHO-K1 cells; for EC50: read-out: 5-HT2B EC50
T2 construct: host or cells: CHO-K1

[3] = biological target: T3, 5-HT2C receptor (Homo sapiens, UniProt P28335); experiment: cell-based; settings: agonist activity, Ca2+ flux, HEK293 cells; for EC50: read-out: 5-HT2C EC50
T3 construct: host or cells: HEK293
T3 sequence (P28335 33-458): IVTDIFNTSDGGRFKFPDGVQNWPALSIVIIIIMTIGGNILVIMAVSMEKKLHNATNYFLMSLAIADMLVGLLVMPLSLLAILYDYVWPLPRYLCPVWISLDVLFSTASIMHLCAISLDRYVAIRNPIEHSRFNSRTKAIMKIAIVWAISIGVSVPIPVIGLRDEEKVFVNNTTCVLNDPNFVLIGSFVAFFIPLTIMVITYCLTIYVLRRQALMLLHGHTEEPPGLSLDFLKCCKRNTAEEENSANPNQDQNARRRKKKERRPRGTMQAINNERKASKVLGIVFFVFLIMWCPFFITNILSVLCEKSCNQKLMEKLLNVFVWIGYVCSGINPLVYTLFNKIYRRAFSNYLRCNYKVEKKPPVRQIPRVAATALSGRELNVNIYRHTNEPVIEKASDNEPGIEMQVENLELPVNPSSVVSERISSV

T1 sequence (P28223 whole entry): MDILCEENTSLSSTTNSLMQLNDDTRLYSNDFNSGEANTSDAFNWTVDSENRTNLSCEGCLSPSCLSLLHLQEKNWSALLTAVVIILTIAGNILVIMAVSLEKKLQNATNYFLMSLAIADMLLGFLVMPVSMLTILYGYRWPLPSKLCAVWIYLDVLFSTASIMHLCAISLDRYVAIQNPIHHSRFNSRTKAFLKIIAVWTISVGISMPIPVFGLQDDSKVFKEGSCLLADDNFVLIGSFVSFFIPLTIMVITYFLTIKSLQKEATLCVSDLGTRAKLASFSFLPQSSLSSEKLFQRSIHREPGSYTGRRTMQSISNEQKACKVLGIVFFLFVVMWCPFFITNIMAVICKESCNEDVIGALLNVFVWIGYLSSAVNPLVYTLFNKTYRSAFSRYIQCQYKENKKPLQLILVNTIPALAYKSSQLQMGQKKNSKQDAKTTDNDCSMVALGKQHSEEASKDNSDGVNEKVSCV
T2 sequence (P41595 whole entry): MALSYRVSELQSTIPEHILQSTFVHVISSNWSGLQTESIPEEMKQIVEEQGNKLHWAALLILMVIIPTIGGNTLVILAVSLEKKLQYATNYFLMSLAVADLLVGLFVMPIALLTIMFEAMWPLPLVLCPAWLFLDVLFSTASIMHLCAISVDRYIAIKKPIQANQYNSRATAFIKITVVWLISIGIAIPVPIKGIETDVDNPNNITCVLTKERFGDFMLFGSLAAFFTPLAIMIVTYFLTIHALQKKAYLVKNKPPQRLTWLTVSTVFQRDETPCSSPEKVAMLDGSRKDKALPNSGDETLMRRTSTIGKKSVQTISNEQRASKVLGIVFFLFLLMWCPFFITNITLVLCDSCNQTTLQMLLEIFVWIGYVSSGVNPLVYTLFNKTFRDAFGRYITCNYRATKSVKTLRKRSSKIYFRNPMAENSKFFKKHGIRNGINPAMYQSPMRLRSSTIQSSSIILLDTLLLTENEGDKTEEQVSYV

| Compound | Emax [1] [%] | Emax [2] [%] | Emax [3] [%] | 5-HT2A Emax [1] [%] | EC50 [1] [nM] | 5-HT2B Emax [2] [%] | EC50 [2] [nM] | 5-HT2C Emax [3] [%] | EC50 [3] [nM] |
| --- | --- | --- | --- | --- | --- | --- | --- | --- | --- |
| COc1cc2c(CCN(C)C(C)C)c[nH]c2cc1C [Example P-44, N-(2-(5-methoxy-6-methyl-1H-indol-3-yl)ethyl)-N-methylpropan-2-amine] | 72.6 | 7.11 | 70.8 | – | – | – | – | – | – |
| CCN(CC)CCc1c[nH]c2cc(C)c(OC)cc12 [Example P-45, N,N-diethyl-2-(5-methoxy-6-methyl-1H-indol-3-yl)ethan-1-amine] | – | – | – | 81.54 | 78.2 | 23.83 | 846 | 84.59 | 700 |
| CCCN(CC)CCc1c[nH]c2cc(C)c(OC)cc12 [Example P-46, N-ethyl-N-(2-(5-methoxy-6-methyl-1H-indol-3-yl)ethyl)propan-1-amine] | – | – | – | 86.81 | 33.3 | 37.67 | 524 | 82.79 | 778 |
| CCN(CCc1c[nH]c2cc(C)c(OC)cc12)C(C)C [Example P-47, N-ethyl-N-(2-(5-methoxy-6-methyl-1H-indol-3-yl)ethyl)propan-2-amine] | 64.7 | 43.2 | 80.8 | – | – | – | – | – | – |
| CCCN(CCC)CCc1c[nH]c2cc(C)c(OC)cc12 [Example P-48, N,N-dipropyl-2-(5-methoxy-6-methyl-1H-indol-3-yl)ethan-1-amine] | 77.5 | 56.8 | 74 | – | – | – | – | – | – |
| COc1cc2c(CCN(C(C)C)C(C)C)c[nH]c2cc1C [Example P-49, N-isopropyl-N-(2-(5-methoxy-6-methyl-1H-indol-3-yl)ethyl)propan-2-amine] | 83.5 | 74.8 | 87 | – | – | – | – | – | – |
| COc1cc(C)c2[nH]cc(CCN(C)C)c2c1 [Example P-50, 2-(5-methoxy-7-methyl-1H-indol-3-yl)-N,N-dimethylethan-1-amine] | 66.2 | 0.5 | 56.4 | – | 64 | – | > 10000 | – | 538 |
| CCCN(C)CCc1c[nH]c2c(C)cc(OC)cc12 [Example P-52, N-(2-(5-methoxy-7-methyl-1H-indol-3-yl)ethyl)-N-methylpropan-1-amine] | 58 | 1.37 | 44.5 | – | 161 | – | > 10000 | – | 529 |
| CCN(CC)CCc1c[nH]c2c(C)cc(OC)cc12 [Example P-54, N, N-diethyl-2-(5-methoxy-7-methyl-1H-indol-3-yl)ethan-1-amine] | 82.8 | 7.69 | 58 | – | 249 | – | > 10000 | – | 1750 |
| CCCN(CC)CCc1c[nH]c2c(C)cc(OC)cc12 [Example P-55, N-ethyl-N-(2-(5-methoxy-7-methyl-1H-indol-3-yl)ethyl)propan-1-amine] | 81.8 | 13.2 | 57.9 | – | 134 | – | > 10000 | – | 1810 |
| CCCN(CCC)CCc1c[nH]c2c(C)cc(OC)cc12 [Example P-57, N, N-dipropyl-2-(5-methoxy-7-methyl-1H-indol-3-yl)ethan-1-amine] | 79.2 | 9.45 | 30.7 | – | 140 | – | > 10000 | – | 2860 |
| COc1cc(C)c2[nH]cc(CCN(C(C)C)C(C)C)c2c1 [Example P-58, N-isopropyl-N-(2-(5-methoxy-7-methyl-1H-indol-3-yl)ethyl)propan-2-amine] | 84 | 42.8 | 85.8 | – | 475 | – | 604 | – | 1700 |
| CCN(C)CCc1c[nH]c2ccc(C)c(OC)c12 [Example P-59, N-ethyl-2-(4-methoxy-5-methyl-1H-indol-3-yl)-N-methylethan-1-amine] | 78 | 68.1 | 90.5 | – | 34.6 | – | 4710 | – | 43.8 |
| COc1c(C)ccc2[nH]cc(CCN(C)C(C)C)c12 [Example P-60, N-(2-(4-methoxy-5-methyl-1H-indol-3-yl)ethyl)-N-methylpropan-2-amine] | 66.3 | 71 | 72.2 | – | 77.6 | – | 768 | – | 198 |
| CCN(CC)CCc1c[nH]c2ccc(C)c(OC)c12 [Example P-61, N, N-diethyl-2-(4-methoxy-5-methyl-1H-indol-3-yl)ethan-1-amine] | 67.7 | 46.3 | 75.8 | – | 321 | – | > 10000 | – | 444 |
| CCN(CCc1c[nH]c2ccc(C)c(OC)c12)C(C)C [Example P-62, N-ethyl-N-(2-(4-methoxy-5-methyl-1H-indol-3-yl)ethyl)propan-2-amine] | 41.9 | 61.5 | 65.9 | – | 319 | – | 5320 | – | 1290 |
| COc1c(C)ccc2[nH]cc(CCN(C(C)C)C(C)C)c12 [Example P-63, N-isopropyl-N-(2-(4-methoxy-5-methyl-1H-indol-3-yl)ethyl)propan-2-amine] | 72.7 | 70.2 | 49.4 | – | 1570 | – | 2250 | – | 9660 |
| CCN(C)CCc1c[nH]c2ccc(C)c(O)c12 [Example P-64, 3-(2-(ethyl(methyl)amino)ethyl)-5-methyl-1H-indol-4-ol] | 79 | 2.42 | 61 | – | 62.2 | – | ≥ 10000 | – | 141 |
| CCCN(C)CCc1c[nH]c2ccc(C)c(O)c12 [Example P-65, 5-methyl-3-(2-(methyl(propyl)amino)ethyl)-1H-indol-4-ol] | 78.8 | 6.22 | 66.3 | – | 56.1 | – | ≥ 10000 | – | 175 |
| Cc1ccc2[nH]cc(CCN(C)C(C)C)c2c1O [Example P-66, 3-(2-(isopropyl(methyl)amino)ethyl)-5-methyl-1H-indol-4-ol] | 94.7 | 2.07 | 50.3 | – | 91.9 | – | ≥ 10000 | – | 391 |
| CCN(CC)CCc1c[nH]c2ccc(C)c(O)c12 [Example P-67, 3-(2-(diethylamino)ethyl)-5-methyl-1H-indol-4-ol] | 78.3 | 11.7 | 78.2 | – | 163 | – | ≥ 10000 | – | 922 |
| CCCN(CCC)CCc1c[nH]c2ccc(C)c(O)c12 [Example P-68, 3-(2-(dipropylamino)ethyl)-5-methyl-1H-indol-4-ol] | 102 | 64.3 | 78 | – | 148 | – | ≥ 10000 | – | 871 |
| Cc1ccc2[nH]cc(CCN(C(C)C)C(C)C)c2c1O [Example P-69, 3-(2-(diisopropylamino)ethyl)-5-methyl-1H-indol-4-ol] | 78.8 | 66.9 | 70.2 | – | 245 | – | ≥ 10000 | – | 3210 |
| CCN(C)CCc1c[nH]c2c(C)ccc(OC)c12 [Example P-80, N-ethyl-2-(4-methoxy-7-methyl-1H-indol-3-yl)-N-methylethan-1-amine] | 30 | 0.74 | 66.7 | – | 113 | – | > 10000 | – | 140 |
| COc1ccc(C)c2[nH]cc(CCN(C)C(C)C)c12 [Example P-81, N-(2-(4-methoxy-7-methyl-1H-indol-3-yl)ethyl)-N-methylpropan-2-amine] | 41.4 | 0.59 | 38.8 | – | 126 | – | > 10000 | – | 764 |
| CCN(CC)CCc1c[nH]c2c(C)ccc(OC)c12 [Example P-82, N,N-diethyl-2-(4-methoxy-7-methyl-1H-indol-3-yl)ethan-1-amine] | 42.4 | 0.89 | 76.7 | – | 283 | – | > 10000 | – | 417 |
| COc1ccc(C)c2[nH]cc(CCN(C(C)C)C(C)C)c12 [Example P-83, N-isopropyl-N-(2-(4-methoxy-7-methyl-1H-indol-3-yl)ethyl)propan-2-amine] | 79.2 | 30 | 66.7 | – | 619 | – | > 10000 | – | 1620 |

— patent US20250101038A1, “COMPOUNDS” (priority 2021, published 2025)
